According to patent US20240115654A1, “INTRAVENOUS ADMINISTRATION OF ENGINEERED ANTIMICROBIAL AMPHIPHILIC PEPTIDES” (priority 2021, published 2024):
Where “and” joins values, the source holds several entries; their conditions need not be identical. Equal values may be shown once. Read-outs that look alike come from different tables or passages of the source. Peptide text beside a SMILES is read from it.

Conditions: for increase of AUC0-t / increase of mean AUC0-24: Cohorts 1 to 3
[1] = Cohort 4, 0.5 mg/kg IV infusion 2 hours, Max
[2] = Cohort 4, 0.5 mg/kg IV infusion 2 hours, Mean
[3] = Cohort 4, 0.5 mg/kg IV infusion 2 hours, Min
[4] = Cohort 4, 0.5 mg/kg IV, infusion 2 hours, cohort Geometric Mean
[5] = Cohort 4, 0.5 mg/kg IV, infusion 2 hours, cohort Mean
[6] = Cohort 4, 0.5 mg/kg IV, infusion 2 hours, cohort Median
[7] = Cohort 5, 1 mg/kg IV infusion 4 hours, Max
[8] = Cohort 5, 1 mg/kg IV infusion 4 hours, Min
[9] = Phase 1 subjects, 1-hr IV infusion
[10] = over the 5-fold increase in dose
[11] = single 1-hour infusion 0.05 mg/kg, Geometric Mean
[12] = single 1-hour infusion 0.05 mg/kg, Max
[13] = single 1-hour infusion 0.05 mg/kg, Mean
[14] = single 1-hour infusion 0.05 mg/kg, Median
[15] = single 1-hour infusion 0.05 mg/kg, Min
[16] = single 1-hour infusion 0.05 mg/kg, individual subjects
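Also: phase 1 study in human subjects given one IV dose of the peptide, enrolled in sequential ascending-dose cohorts and randomized to peptide or placebo.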

Experimental: Administration was a single 1-hour infusion.
Subjects were enrolled in sequential cohorts of peptide ascending dose levels and randomly assigned to receive a single IV administration of either peptide or placebo over 1 to 2 hours. […] In addition, the infusion volume was adjusted for Cohort 4 to maintain drug concentrations in line with Cohort 2
Blood samples for PK assessment were collected at pre-dose, at the midpoint of infusion, within 1 minute after the end-of-infusion and at 0.5, 1, 2, 4, 6, 8, 12, 20, 24, 36 and 48 hours after the end-of-infusion.
The pharmaceutical composition was stored at 2° C. to 8° C. for up to 14 days and then 15° C. to 25° C. for up to 48 hours for dosing.
Subjects were enrolled in sequential cohorts of peptide ascending dose levels and randomly assigned to receive a single IV administration of either peptide or placebo over 1 to 2 hours.

## CC(C)[C@H](NC(=O)[C@H](Cc1c[nH]c2ccccc12)NC(=O)[C@H](CCCNC(=N)N)NC(=O)[C@H](CCCNC(=N)N)NC(=O)[C@@H](NC(=O)[C@@H](NC(=O)[C@H](CCCNC(=N)N)NC(=O)[C@@H](NC(=O)[C@@H](NC(=O)[C@H](CCCNC(=N)N)NC(=O)[C@H](CCCNC(=N)N)NC(=O)[C@H](Cc1c[nH]c2ccccc12)NC(=O)[C@@H](NC(=O)[C@H](CCCNC(=N)N)NC(=O)[C@H](CCCNC(=N)N)NC(=O)[C@@H](NC(=O)[C@H](CCCNC(=N)N)NC(=O)[C@H](CCCNC(=N)N)NC(=O)[C@@H](NC(=O)[C@H](Cc1c[nH]c2ccccc12)NC(=O)[C@H](CCCNC(=N)N)NC(=O)[C@@H](N)CCCNC(=N)N)C(C)C)C(C)C)C(C)C)C(C)C)C(C)C)C(C)C)C(C)C)C(=O)N[C@@H](CCCNC(=N)N)C(=O)N[C@@H](CCCNC(=N)N)C(N)=O [SEQ ID NO: 1] (H-RRWVRRVRRVWRRVVRVVRRWVRR-NH2)
[1]
  AUC(0-inf): 13500 ng·h/mL
  AUC(0-t): 12200 ng·h/mL
  AUCextrap: 12.8%
  Cmax: 2310 ng/mL
  t1/2: 21.1 h
[2]
  AUCextrap: 8.22%
  CL/F: 0.0644 L/h/kg
Cohort 4, 0.5 mg/kg IV infusion 2 hours, Median
  AUCextrap: 8.81%
[3]
  AUC0-24: 3190 ng·h/mL
  AUC(0-inf): 3870 ng·h/mL
  AUC(0-t): 3440 ng·h/mL
  AUCextrap: 3.65%
  CL/F: 0.0369 L/h/kg
  Cmax: 994 ng/mL
  t1/2: 11.5 h
Cohort 4, 0.5 mg/kg IV, infusion 2 hours, 0.0 h, cohort mean N 6
  Plasma Concentration by Nominal Time from Start of Infusion, Mean: 0.00 ng/mL
Cohort 4, 0.5 mg/kg IV, infusion 2 hours, 0.0 h, individual subjects
  Plasma Concentration by Nominal Time from Start of Infusion: 0.00 ng/mL
Cohort 4, 0.5 mg/kg IV, infusion 2 hours, 4.0 h, individual subjects
  Plasma Concentration by Nominal Time from Start of Infusion: 457 ng/mL and 502 ng/mL and 614 ng/mL
Cohort 4, 0.5 mg/kg IV, infusion 2 hours, 6.0 h, individual subjects
  Plasma Concentration by Nominal Time from Start of Infusion: 249 ng/mL and 448 ng/mL and 472 ng/mL
Cohort 4, 0.5 mg/kg IV, infusion 2 hours, 8.0 h, individual subjects
  Plasma Concentration by Nominal Time from Start of Infusion: 164 ng/mL and 311 ng/mL and 377 ng/mL
[4]
  AUCextrap: 7.38%
  CL/F: 0.0586 L/h/kg
  Tlast: 46 h
  λz: 0.0443 h⁻¹
[5]
  AUCextrap: 8.22%
  CL/F: 0.0644 L/h/kg
  Tlast: 46 h
  λz: 0.0457 h⁻¹
[6]
  AUCextrap: 8.81%
  CL/F: 0.0535 L/h/kg
  Tlast: 50 h
  λz: 0.0461 h⁻¹
Cohort 4, 0.5 mg/kg IV, infusion 2 hours, individual subjects
  Tlast: 38 h (2×) and 50 h (4×)
Cohort 5, 1 mg/kg IV 4-hr infusion, 0.0 h, cohort mean
  Plasma Concentration by Nominal Time from Start of Infusion, Mean: 0.00 ng/mL
Cohort 5, 1 mg/kg IV infusion 4 hours, Geometric Mean
  AUCextrap: 8.61%
[7]
  AUC0-24: 28800 ng·h/mL
  AUC(0-inf): 25700 ng·h/mL
  AUC(0-t): 34300 ng·h/mL
  AUCextrap: 17.8%
  t1/2: 28.3 h
Cohort 5, 1 mg/kg IV infusion 4 hours, Mean
  AUCextrap: 10.8%
Cohort 5, 1 mg/kg IV infusion 4 hours, Median
  AUCextrap: 11.6%
[8]
  AUC0-24: 14000 ng·h/mL
  AUC(0-inf): 17400 ng·h/mL
  AUC(0-t): 15800 ng·h/mL
  AUCextrap: 2.43%
  Cmax: 2030 ng/mL
  t1/2: 9.59 h
Cohort 5, 1 mg/kg IV infusion 4 hours, individual subject
  AUC(0-inf): 17400 ng·h/mL and 19900 ng·h/mL and 25700 ng·h/mL
[9]
  actual dose-level exposure AUC0-24 relative to that predicted from animal data: 5-10 ×
  actual dose-level exposure Cmax relative to that predicted from animal data: about 4 ×
Dose range 0.05 to 0.5 mg/kg, slope not significantly different from 1
  dose proportionality of AUC0-t: increased proportionally with dose increase
Dose range 0.05 to 1 mg/kg
  intercept estimate, log AUC0-∞ versus log dose: 6.04
Dose range 0.05 to 1 mg/kg, 90% CI=0.78 to 1.03
  slope estimate, log AUC0-∞ versus log dose: 0.91
[10]
  increase of AUC0-t: 4.2 fold
  increase of mean AUC0-24: 3.6 fold
Over the […] increase in dose
  increase of AUC0-t: 2.2 fold
  increase of mean AUC0-24: 2.0 fold
[11]
  AUCextrap: 8.36%
  Tlast: 24 h
  λz: 0.0946 h⁻¹
[12]
  AUC0-24: 1610 ng·h/mL
  AUC(0-inf): 1820 ng·h/mL
  AUC(0-t): 1720 ng·h/mL
  AUCextrap: 12.1%
  CL/F: 0.0357 L/h/kg
  Cmax: 341 ng/mL
  Tlast: 37 h
  t1/2: 8.59 h
  λz: 0.105 h⁻¹
[13]
  AUCextrap: 8.87%
  Tlast: 25 h
  λz: 0.095 h⁻¹
[14]
  AUCextrap: 8.12%
  Tlast: 25 h
  λz: 0.0951 h⁻¹
[15]
  AUC0-24: 619 ng·h/mL
  AUC(0-t): 515 ng·h/mL
  AUCextrap: 4.54%
  CL/F: 0.0274 L/h/kg
  Cmax: 170 ng/mL
  Tlast: 13 h
  t1/2: 6.62 h
  λz: 0.0807 h⁻¹
[16]
  AUC(0-inf): 1490 ng·h/mL and 1800 ng·h/mL and 1820 ng·h/mL
  CL/F: 0.0337 L/h/kg and 0.0278 L/h/kg and 0.0274 L/h/kg
  Tlast: 25 h (4×) and 13 h and 37 h
